Assays:
[1] = test system: male NIH Swiss mice; test: Marble burying assay (with rotorod); type: in vivo, mouse; details: marbles buried in 30 min, rotorod for motor impairment
Source text: Marble burying in mice has been used to model anxiety disorders including obsessive-compulsive disorders (OCD) due to ethological study of the behavior (e.g. Gyertyan I. “Analysis of the marble burying response: Marbles serve to measure digging rather than evoke burying”, Behavioural Pharmacology 6: 24-31, (1995)) and due to the pharmacological effects of clinical standards (c.f., Njung'E K. Handley S L. “Evaluation of marble-burying behavior as a model of anxiety”, Pharmacology, Biochemistry & Behavior. 38: 63-67, (1991)); Borsini F., Podhorna J., and Marazziti, D. “Do animal models of anxiety predict anxiolytic effects of antidepressants?”, Psychopharmacology 163: 121-141, (2002)).
House experimentally-naïve male, NIH Swiss mice (Harlan Sprague-Dawley, Indianapolis, Ind.) weighing between 28-35 g in groups of 12 for at least three days prior to testing in a vivarium with 12 h light and dark cycles. Conduct experiments during the light cycle in a dimly lit experimental testing room. Dose mice with vehicle or test compound and, after a specified pretreatment interval (generally 30 min.), place each mouse individually on a rotorod (Ugo Basile 7650) operating at a speed of 6 revolutions/min. and observe for falling. […]
Clinically effective standard compounds suppress marble burying at doses that are devoid of motor-impairing effects as measured on the rotorod. […]

[2] = test system: male NIH Swiss mice; test: Nestlet shredding; type: in vivo, mouse; details: 30 min, rotorod for motor impairment
Source text: Mice naturally will construct nests of material available in their living environment. Since this behavior is obsessive in nature, it has been used to model OCD (Xia Li, Denise Morrow and Jeffrey M. Witkin, “Decreases in nestlet shredding of mice by serotonin uptake inhibitors: comparison with marble burying”, Psychopharmacology, submitted Jul. 14, 2003). House experimentally-naïve male, NIH Swiss mice (Harlan Sprague-Dawley, Indianapolis, Ind.) weighing between 28-35 g in groups of 12 for at least three days prior to testing in a vivarium with a 12 h light/dark cycle. Conduct experiments during the light cycle in an experimental room with normal overhead fluorescent lighting. Dose mice with vehicle or test compound and after a specified pretreatment interval (generally 30 min.), place the mice individually in a 17×28×12 cm high plastic tub with about 5 mm sawdust shavings on the floor along with a pre-weighed multi-ply gauze pad (51 mm square). After 30 min., weigh the remainder of the gauze pad not removed by the mouse. Determine the weight of the gauze used for nestlet construction by subtraction. Compare the results for test compound treated mice to the results for vehicle control treated mice with Dunnett's test.
Clinically effective OCD treatment standard compounds suppress nestlet shredding at doses that are devoid of motor-impairing effects as measured by the rotorod test. […]

[3] = test system: Wistar rats; test: Schedule-induced polydipsia; type: in vivo, rat
Source text: Schedule-Induced Polydipsia
Food-deprived rats exposed to intermittent presentations of food will drink amounts of water that are far in excess of their normal daily intake and in excess of their intake when given all of their food at one time (Falk J L. “Production of polydipsia in normal rats by an intermittent food schedule”, Science 133: 195-196, (1961)). This excessive behavior is persistent and has been used to model OCD.
Maintain Wistar rats on a food restricted diet (to maintain 85% free feeding weight), but with free access to water. Train the rats in a behavioral testing chamber to press a lever to receive a food pellet under a fixed interval schedule, such that the rats are rewarded with a 45 mg food pellet the first time they press a lever after a 120 second interval has elapsed. The fixed interval is then reset to 120 seconds and the process repeated. Thus, during a 90 min. test session, the rats can earn a maximum of 45 pellets. The behavioral chamber is also equipped with a water bottle that is weighed before and after the session to determine the amount of water consumed.
Administer test compounds on Tuesdays and Fridays. […] Compare the rates of lever pressing and water consumption for each animal's performance during sessions after test compound treatment with that animal's performance during control sessions, expressed as a percent of the control rate. […]

[4] = test system: Wistar rats; details: clinically effective OCD treatment standard compounds; cited from earlier work
[5] = test system: male NIH Swiss mice; details: compounds used to treat OCD, literature; cited from earlier work

CN(C)CCCN1c2ccccc2Sc2ccc(Cl)cc21 [chlorpromazine]
Marble burying [1]: decrease marble burying only at doses that also disrupt rotorod performance

C[C@H](N)Cc1ccccc1 [d-amphetamine]
Nestlet shredding [2]: decreases nestlet shredding only at doses that produce motoric side effects
Effect on schedule-induced polydipsia with co-administered 5-HT2C antagonist ([3]; co-administration of the 5-HT2C receptor antagonist): not prevented by the 5HT2C receptor antagonist
Schedule-induced polydipsia (water consumption) ([3]; food-restricted rats, 90 min session): decreases excessive drinking only at behaviorally stimulating doses

CN(C)CCCN1c2ccccc2CCc2ccc(Cl)cc21 [chlomipramine]
Schedule-induced polydipsia (clinical standards) [4]: suppress schedule-induced polydipsia without producing notable changes in motor patterns, food intake, or behavior the following day

CNCCC(Oc1ccc(C(F)(F)F)cc1)c1ccccc1 (stereo not shown) [fluoxetine]
Marble burying (clinical standards) [5]: decrease burying
Schedule-induced polydipsia (clinical standards) [4]: suppress schedule-induced polydipsia without producing notable changes in motor patterns, food intake, or behavior the following day

From patent US8680091B2, “6-arylalkylamino-2,3,4,5-tetrahydro-1H-benzo[d]azepines as 5-HT2C receptor agonists” (Eli Lilly and Company, priority 2005, dated 2014)
